Reference: patent publication US11046699B2, “Pyrazolo-pyrimidin-amino-cycloalkyl compounds and their therapeutic uses” (RAPT THERAPEUTICS, INC., priority 2018, dated 2021)

What follows are compounds tested against GCN2 (Homo sapiens, UniProt Q9P2K8) (assay: GCN2 enzymatic endpoint assay: phosphorylation of GFP-eIF2α measured by TR-FRET (Lanthascreen)). Settings: tested as described in Example 77; compound and/or hydrochloride, dihydrochloride or trifluoroacetic acid salt; read-out: IC 50 Activity.
Assay type: biochemical
Procedure, shortened: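 Endpoint GCN2 reaction with low ATP (2 μM) and 80 nM GFP-eIF2α, room temperature, 90 minutes. Detection mix with EDTA and Tb-labelled antibody; 520 nm/495 nm emission ratio reported.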

Sequence of GCN2 (Q9P2K8 whole entry): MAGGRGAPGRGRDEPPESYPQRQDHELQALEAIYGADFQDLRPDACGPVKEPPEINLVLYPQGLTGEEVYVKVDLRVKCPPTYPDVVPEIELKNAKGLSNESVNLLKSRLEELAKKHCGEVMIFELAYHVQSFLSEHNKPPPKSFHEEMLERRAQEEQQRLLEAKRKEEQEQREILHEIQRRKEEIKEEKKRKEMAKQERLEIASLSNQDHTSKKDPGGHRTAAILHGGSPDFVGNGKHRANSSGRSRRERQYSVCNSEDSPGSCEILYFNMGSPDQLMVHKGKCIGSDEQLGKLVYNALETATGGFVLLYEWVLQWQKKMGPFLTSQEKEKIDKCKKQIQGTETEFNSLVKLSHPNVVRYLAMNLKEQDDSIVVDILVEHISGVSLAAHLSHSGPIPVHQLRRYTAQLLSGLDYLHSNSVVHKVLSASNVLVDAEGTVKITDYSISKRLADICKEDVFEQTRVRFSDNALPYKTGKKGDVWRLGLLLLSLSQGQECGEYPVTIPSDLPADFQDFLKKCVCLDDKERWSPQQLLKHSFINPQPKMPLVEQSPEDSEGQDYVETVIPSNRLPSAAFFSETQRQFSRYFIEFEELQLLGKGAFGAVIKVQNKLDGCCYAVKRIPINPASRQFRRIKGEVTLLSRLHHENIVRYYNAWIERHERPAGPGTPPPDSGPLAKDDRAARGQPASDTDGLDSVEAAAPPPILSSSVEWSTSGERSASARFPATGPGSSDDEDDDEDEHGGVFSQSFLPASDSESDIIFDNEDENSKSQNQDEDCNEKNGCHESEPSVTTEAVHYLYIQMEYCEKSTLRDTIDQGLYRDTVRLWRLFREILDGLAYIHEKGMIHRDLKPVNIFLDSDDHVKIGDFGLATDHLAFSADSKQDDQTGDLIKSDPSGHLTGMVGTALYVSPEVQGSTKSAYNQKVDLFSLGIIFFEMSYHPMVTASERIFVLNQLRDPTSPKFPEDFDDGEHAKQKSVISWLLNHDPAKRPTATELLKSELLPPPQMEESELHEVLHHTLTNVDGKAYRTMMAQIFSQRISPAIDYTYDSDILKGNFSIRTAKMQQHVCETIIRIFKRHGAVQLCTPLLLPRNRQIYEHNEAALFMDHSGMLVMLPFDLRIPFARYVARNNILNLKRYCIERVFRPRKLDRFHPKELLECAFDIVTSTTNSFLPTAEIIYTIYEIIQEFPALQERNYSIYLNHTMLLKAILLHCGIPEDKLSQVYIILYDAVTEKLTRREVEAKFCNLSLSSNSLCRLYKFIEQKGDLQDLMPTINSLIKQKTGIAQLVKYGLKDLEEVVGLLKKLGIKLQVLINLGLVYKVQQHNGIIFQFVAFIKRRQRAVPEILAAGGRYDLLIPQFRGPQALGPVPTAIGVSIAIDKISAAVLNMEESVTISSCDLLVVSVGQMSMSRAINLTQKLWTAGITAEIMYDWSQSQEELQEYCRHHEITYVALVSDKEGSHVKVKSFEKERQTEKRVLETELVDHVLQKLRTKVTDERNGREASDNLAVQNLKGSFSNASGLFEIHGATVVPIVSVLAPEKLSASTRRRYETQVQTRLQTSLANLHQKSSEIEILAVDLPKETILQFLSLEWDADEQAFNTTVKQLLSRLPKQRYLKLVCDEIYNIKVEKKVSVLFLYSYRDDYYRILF

IC50 [µM]	Structure (SMILES)
0.025 to 0.2	Cc1nnc(-c2ccc(-n3nc(Br)c4cnc(N[C@@H]5CCC(C)(C(=O)N6CCOCC6)C5)nc43)cc2)o1 (stereo partly drawn) [[(3R)-3-[[3-bromo-1-[4-(5-methyl-1,3,4-oxadiazol-2-yl)phenyl]pyrazolo[3,4-d]pyrimidin-6-yl]amino]-1-methyl-cyclopentyl]-morpholino-methanone]
0.025 to 0.2	CC1(C(=O)N2CCN3CCOC[C@@H]3C2)CC[C@@H](Nc2ncc3c(Br)nn(-c4cc(F)c5ncccc5c4)c3n2)C1 (stereo partly drawn) [[(9aS)-3,4,6,7,9,9a-hexahydro-1H-pyrazino [2,1-c][1,4]oxazin-8-yl]-[(3R)-3-[[3-bromo-1-(8-fluoro-6-quinolyl)pyrazolo[3,4-d]pyrimidin-6-yl]amino]-1-methyl-cyclopentyl]methanone]
0.025 to 0.2	CNC(=O)[C@]1(C)CC[C@@H](Nc2ncc3c(Br)nn(-c4cc(CCNC(=O)OC)c5ncccc5c4)c3n2)C1 [methyl N-[2-[6-[3-bromo-6-[[(1R,3R)-3-methyl-3-(methylcarbamoyl)cyclopentyl]amino]pyrazolo[3,4-d]pyrimidin-1-yl]-8-quinolyl]ethyl]carbamate]
